Data as given in article PMC12028158, “Synthesis and In Vitro Evaluation of the Anticancer Effect of Novel Phosphonium Vindoline Derivatives” (International Journal of Molecular Sciences, 2025).
Where two headings read alike, the source gives them in different places.

Columns and labels:
Assay type in all cases: cell-based
[1] = tested on: HL-60(TB); assay: NCI60 five-dose screen; settings: Homo sapiens, read-out: GI50
[2] = tested on: MOLT-4; assay: NCI60 five-dose screen; settings: Homo sapiens; MOLT-4, Leukemia, five-dose; read-out: GI50
[3] = tested on: A549/ATCC; assay: NCI60 five-dose screen; settings: Homo sapiens; A549/ATCC, Non-small Cell Lung Cancer, five-dose; read-out: GI50
[4] = tested on: HOP-92; assay: NCI60 five-dose screen; settings: Homo sapiens; HOP-92, Non-small Cell Lung Cancer, five-dose; read-out: GI50
[5] = tested on: NCI-H460; assay: NCI60 five-dose screen; settings: Homo sapiens; NCI-H460, Non-small Cell Lung Cancer, five-dose; read-out: GI50
[6] = tested on: NCI-H522; assay: NCI60 five-dose screen; settings: Homo sapiens; NCI-H522, Non-small Cell Lung Cancer, five-dose; read-out: GI50
[7] = tested on: HCC-2998; assay: NCI60 five-dose screen; settings: Homo sapiens; HCC-2998, Colon Cancer, five-dose; read-out: GI50
[8] = tested on: KM12; assay: NCI60 five-dose screen; settings: Homo sapiens, read-out: GI50
[9] = tested on: U251; assay: NCI60 five-dose screen; settings: Homo sapiens, read-out: GI50
[10] = tested on: M14; assay: NCI60 five-dose screen; settings: Homo sapiens; M14, Melanoma, five-dose; read-out: GI50
[11] = tested on: MDA-MB-435; assay: NCI60 five-dose screen; settings: Homo sapiens; MDA-MB-435, Melanoma, five-dose; read-out: GI50
[12] = tested on: SK-MEL-28; assay: NCI60 five-dose screen; settings: Homo sapiens; SK-MEL-28, Melanoma, five-dose; read-out: GI50
[13] = tested on: UACC-257; assay: NCI60 five-dose screen; settings: Homo sapiens, read-out: GI50
[14] = tested on: OVCAR-4; assay: NCI60 five-dose screen; settings: Homo sapiens; OVCAR-4, Ovarian Cancer, five-dose; read-out: GI50
[15] = tested on: OVCAR-5; assay: NCI60 five-dose screen; settings: Homo sapiens; OVCAR-5, Ovarian Cancer, five-dose; read-out: GI50
[16] = tested on: SK-OV-3; assay: NCI60 five-dose screen; settings: Homo sapiens; SK-OV-3, Ovarian Cancer, five-dose; read-out: GI50
[17] = tested on: A498; assay: NCI60 five-dose screen; settings: Homo sapiens; A498, Renal Cancer, five-dose; read-out: GI50
[18] = tested on: ACHN; assay: NCI60 five-dose screen; settings: Homo sapiens, Renal Cancer, five-dose, read-out: GI50
[19] = tested on: CAKI-1; assay: NCI60 five-dose screen; settings: Homo sapiens; CAKI-1, Renal Cancer, five-dose; read-out: GI50
[20] = tested on: Non-small Cell Lung Cancer panel; assay: NCI60 five-dose screen, panel mean; settings: Homo sapiens; mean over Non-small Cell Lung Cancer panel; read-out: Mean GI50
[21] = tested on: Melanoma panel; assay: NCI60 five-dose screen, panel mean; settings: Homo sapiens; mean over Melanoma panel; read-out: Mean GI50
[22] = tested on: Renal Cancer panel; assay: NCI60 five-dose screen, panel mean; settings: Homo sapiens; mean over Renal Cancer panel; read-out: Mean GI50
[23] = tested on: RPMI-8226; assay: NCI60 one-dose screen; settings: Homo sapiens; RPMI-8226, 10 μM, one-dose; read-out: Growth percent
[24] = tested on: HOP-92; assay: NCI60 one-dose screen; settings: Homo sapiens; HOP-92, 10 μM, one-dose; read-out: Growth percent
[25] = tested on: NCI-H226; assay: NCI60 one-dose screen; settings: Homo sapiens; NCI-H226, 10 μM, one-dose; read-out: Growth percent
[26] = tested on: NCI-H23; assay: NCI60 one-dose screen; settings: Homo sapiens; NCI-H23, 10 μM, one-dose; read-out: Growth percent
[27] = tested on: NCI-H522; assay: NCI60 one-dose screen; settings: Homo sapiens; NCI-H522, 10 μM, one-dose; read-out: Growth percent
[28] = tested on: COLO 205; assay: NCI60 one-dose screen; settings: Homo sapiens; COLO 205, 10 μM, one-dose; read-out: Growth percent
[29] = tested on: HCT-15; assay: NCI60 one-dose screen; settings: Homo sapiens; HCT-15, 10 μM, one-dose; read-out: Growth percent
[30] = tested on: HT29; assay: NCI60 one-dose screen; settings: Homo sapiens, HT-29; HT29, 10 μM, one-dose; read-out: Growth percent
[31] = tested on: SW-620; assay: NCI60 one-dose screen; settings: Homo sapiens; SW-620, 10 μM, one-dose; read-out: Growth percent
[32] = tested on: LOX IMVI; assay: NCI60 one-dose screen; settings: Homo sapiens, 10 μM, one-dose, read-out: Growth percent
[33] = tested on: MALME-3M; assay: NCI60 one-dose screen; settings: Homo sapiens; MALME-3M, 10 μM, one-dose; read-out: Growth percent
[34] = tested on: SK-MEL-2; assay: NCI60 one-dose screen; settings: Homo sapiens; SK-MEL-2, 10 μM, one-dose; read-out: Growth percent
[35] = tested on: OVCAR-4; assay: NCI60 one-dose screen; settings: Homo sapiens; OVCAR-4, 10 μM, one-dose; read-out: Growth percent
[36] = tested on: SK-OV-3; assay: NCI60 one-dose screen; settings: Homo sapiens; SK-OV-3, 10 μM, one-dose; read-out: Growth percent
[37] = tested on: 786-0; assay: NCI60 one-dose screen; settings: Homo sapiens; 786-0, 10 μM, one-dose; read-out: Growth percent
[38] = tested on: TK-10; assay: NCI60 one-dose screen; settings: Homo sapiens; TK-10, 10 μM, one-dose; read-out: Growth percent
[39] = tested on: DU-145; assay: NCI60 one-dose screen; settings: Homo sapiens; DU-145, 10 μM, one-dose; read-out: Growth percent
[40] = tested on: MDA-MB-468; assay: NCI60 one-dose screen; settings: Homo sapiens; MDA-MB-468, 10 μM, one-dose; read-out: Growth percent
[41] = tested on: 60 human tumor cell lines (NCI60); assay: NCI60 one-dose screen, overall mean; settings: one-dose

With `CC[C@]12C=CCN3CC[C@@]4(c5ccc(OC)cc5N(C)[C@H]4[C@@](O)(C(=O)OC)[C@@H]1OC(=O)CCC[P+](c1cc(C)c(OC)c(C)c1)(c1cc(C)c(OC)c(C)c1)c1cc(C)c(OC)c(C)c1)[C@@H]32` [9e] the GI50 ([1]; HL-60, HL-60(TB), Leukemia, five-dose) was 39 nM, the GI50 ([1]; HL-60, leukemia HL-60(TB)) was < 100 nM and the GI50 [2] was 164 nM. It also gave a GI50 [3] of 275 nM, a GI50 [4] of 201 nM and a GI50 [5] of 229 nM. For the same compound, the GI50 [6] was 198 nM, the GI50 [7] was 195 nM and the GI50 ([8]; KM12, KM12, Colon Cancer, five-dose) was 47 nM. The GI50 ([8]; KM12, colon cancer KM12, text) was < 100 nM, the GI50 ([9]; U-251, CNS cancer U251, text) was < 100 nM and the GI50 ([9]; U-251, U251, CNS Cancer, five-dose) was 54 nM. It also gave a GI50 [10] of 299 nM, a GI50 [11] of 231 nM and a GI50 [12] of 272 nM. The GI50 ([13]; UACC-257, UACC-257, Melanoma, five-dose) was 38 nM, the GI50 ([13]; UACC-257, melanoma UACC-257, text) was < 100 nM and the GI50 [14] was 271 nM. It also gave a GI50 [15] of 339 nM, a GI50 [16] of 232 nM and a GI50 [17] of 314 nM. It also gave a GI50 [18] of 319 nM, a GI50 [19] of 313 nM and a GI50 [20] of 230 nM. For the same compound, the GI50 [21] was 180 nM, the GI50 [22] was 440 nM and the activity at 10 µM [23] was -98.3%. It also gave an activity at 10 µM [24] of -98.9%, an activity at 10 µM [25] of -99.3% and an activity at 10 µM [26] of -98.1%. For the same compound, the activity at 10 µM [27] was -98.4%, the activity at 10 µM [28] was -96.6% and the activity at 10 µM [29] was -93.9%. The activity at 10 µM [30] was -97.5%, the activity at 10 µM [31] was -95.8% and the activity at 10 µM [32] was -96.8%. For the same compound, the activity at 10 µM [33] was -98.4%, the activity at 10 µM [34] was -98.2% and the activity at 10 µM [35] was -98.7%. The activity at 10 µM [36] was -97.7%, the activity at 10 µM [37] was -97.9% and the activity at 10 µM [38] was -99.3%. For the same compound, the activity at 10 µM [39] was -96.8%, the activity at 10 µM [40] was -99.4% and the activity at 10 µM ([41]; Homo sapiens, mean over 60 cell lines, 10 μM, read-out: Mean growth percent) was -97.1%. The Mean growth percent ([41]; mean over 60 cell lines, 10 μM) was −97.13% and the “average reduction / average cell death” value ([41]; 10 µM, average over cell lines) was “more than 70%”.
